Measured values published in ChEMBL document CHEMBL4800722, “Data for DCP probe BI 605906” (2021).

Legend:
[1] = biological target: AMP-activated protein kinase alpha-2/beta-2/gamma-2 (Homo sapiens) (UniProt P54646+O43741+Q9UGJ0); experiment: AMPK (A2/B2/G2) Invitrogen Lab (UK) kinase screen (BI); type: protein-complex assay; settings: Compound concentration 1.0 uM
[2] = biological target: CDK18/Cyclin Y (Homo sapiens) (UniProt Q07002+Q8ND76); settings: Compound concentration 1.0 uM
[3] = biological target: Tyrosine-protein kinase ABL1 (Homo sapiens) (UniProt P00519)
Sequence of Tyrosine-protein kinase ABL1 (Homo sapiens) (P00519 whole entry): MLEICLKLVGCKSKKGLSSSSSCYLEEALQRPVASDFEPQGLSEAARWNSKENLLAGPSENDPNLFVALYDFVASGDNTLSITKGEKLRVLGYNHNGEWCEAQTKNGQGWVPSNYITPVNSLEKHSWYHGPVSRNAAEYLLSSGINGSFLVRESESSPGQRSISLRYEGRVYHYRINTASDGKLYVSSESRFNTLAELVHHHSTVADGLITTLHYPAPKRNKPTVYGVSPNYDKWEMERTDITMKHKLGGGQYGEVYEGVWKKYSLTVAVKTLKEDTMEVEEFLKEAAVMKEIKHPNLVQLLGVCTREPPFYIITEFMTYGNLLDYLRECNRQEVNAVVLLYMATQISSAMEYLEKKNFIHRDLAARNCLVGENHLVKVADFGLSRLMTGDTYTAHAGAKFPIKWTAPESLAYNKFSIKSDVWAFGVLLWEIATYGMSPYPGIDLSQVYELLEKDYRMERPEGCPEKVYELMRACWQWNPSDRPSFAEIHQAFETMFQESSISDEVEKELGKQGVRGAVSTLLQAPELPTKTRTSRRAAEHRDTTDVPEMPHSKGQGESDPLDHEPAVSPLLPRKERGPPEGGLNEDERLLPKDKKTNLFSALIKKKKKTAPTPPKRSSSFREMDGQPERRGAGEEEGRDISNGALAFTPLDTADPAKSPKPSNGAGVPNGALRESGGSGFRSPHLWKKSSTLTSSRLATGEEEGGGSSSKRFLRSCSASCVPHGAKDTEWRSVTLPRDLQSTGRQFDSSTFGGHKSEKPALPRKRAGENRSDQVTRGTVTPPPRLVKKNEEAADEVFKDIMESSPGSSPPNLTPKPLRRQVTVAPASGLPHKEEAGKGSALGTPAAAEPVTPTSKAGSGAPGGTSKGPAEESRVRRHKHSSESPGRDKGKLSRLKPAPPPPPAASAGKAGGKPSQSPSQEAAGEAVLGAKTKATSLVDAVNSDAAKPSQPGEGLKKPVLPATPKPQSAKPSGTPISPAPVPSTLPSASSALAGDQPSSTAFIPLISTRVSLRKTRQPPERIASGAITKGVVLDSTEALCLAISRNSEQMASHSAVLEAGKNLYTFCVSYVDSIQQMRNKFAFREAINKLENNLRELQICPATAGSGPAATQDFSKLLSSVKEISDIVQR

[4] = biological target: MAP kinase-activated protein kinase 5 (Homo sapiens) (UniProt Q8IW41); experiment: PRAK DUNDEE kinase screen (BI); settings: Compound concentration 10.0 uM
[5] = biological target: Mitogen-activated protein kinase 14 (Homo sapiens) (UniProt Q16539); settings: Compound concentration 1.0 uM
[6] = biological target: Nitric oxide synthase 3 (Rattus norvegicus) (UniProt Q62600); experiment: CNOS Eurofins SafetyScreen44 (BI); settings: Compound concentration 10.0 uM
[7] = biological target: Serine/threonine-protein kinase D2 (Homo sapiens) (UniProt Q9BZL6); settings: Compound concentration 1.0 uM
[8] = biological target: Hormonally up-regulated neu tumor-associated kinase (Homo sapiens) (UniProt P57058); settings: Compound concentration 1.0 uM
[9] = biological target: Leucine-rich repeat serine/threonine-protein kinase 2 (Homo sapiens) (UniProt Q5S007); experiment: LRRK2 Invitrogen Lab (UK) kinase screen (BI); settings: Compound concentration 1.0 uM
[10] = biological target: AMPK alpha1/beta2/gamma1 (Homo sapiens) (UniProt O43741+P54619+Q13131); settings: Compound concentration 1.0 uM
[11] = biological target: Proto-oncogene tyrosine-protein kinase Src (Homo sapiens) (UniProt P12931)
Sequence of Proto-oncogene tyrosine-protein kinase Src (Homo sapiens) (P12931 2-536 limits assumed): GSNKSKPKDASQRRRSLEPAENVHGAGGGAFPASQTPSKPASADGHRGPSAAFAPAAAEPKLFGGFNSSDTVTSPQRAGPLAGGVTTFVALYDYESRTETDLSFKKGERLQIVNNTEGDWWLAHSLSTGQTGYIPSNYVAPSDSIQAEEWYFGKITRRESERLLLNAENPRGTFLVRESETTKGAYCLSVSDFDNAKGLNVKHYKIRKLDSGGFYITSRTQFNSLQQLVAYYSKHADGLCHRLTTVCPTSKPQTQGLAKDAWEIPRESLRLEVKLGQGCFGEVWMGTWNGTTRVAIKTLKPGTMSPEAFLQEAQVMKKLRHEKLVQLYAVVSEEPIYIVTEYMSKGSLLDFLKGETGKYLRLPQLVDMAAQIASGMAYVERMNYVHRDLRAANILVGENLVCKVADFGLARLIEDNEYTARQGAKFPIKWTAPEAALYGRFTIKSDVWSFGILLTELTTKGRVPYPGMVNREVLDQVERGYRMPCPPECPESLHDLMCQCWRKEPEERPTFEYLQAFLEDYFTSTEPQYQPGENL

[12] = biological target: Tyrosine-protein kinase Fyn (Homo sapiens) (UniProt P06241); settings: Compound concentration 1.0 uM
[13] = biological target: Phosphatidylinositol 4-phosphate 5-kinase type-1 beta (Homo sapiens) (UniProt O14986); settings: Compound concentration 1.0 uM
[14] = biological target: Sigma intracellular receptor 2 (Homo sapiens) (UniProt Q5BJF2); settings: Compound concentration 10.0 uM
[15] = biological target: Serine/threonine-protein kinase N1 (Homo sapiens) (UniProt Q16512); settings: Compound concentration 1.0 uM
[16] = biological target: AP2-associated protein kinase 1 (Homo sapiens, UniProt Q2M2I8); experiment: NanoBRET (SGC-FFM) (AAK1)
Sequence of AP2-associated protein kinase 1 (Q2M2I8 whole entry): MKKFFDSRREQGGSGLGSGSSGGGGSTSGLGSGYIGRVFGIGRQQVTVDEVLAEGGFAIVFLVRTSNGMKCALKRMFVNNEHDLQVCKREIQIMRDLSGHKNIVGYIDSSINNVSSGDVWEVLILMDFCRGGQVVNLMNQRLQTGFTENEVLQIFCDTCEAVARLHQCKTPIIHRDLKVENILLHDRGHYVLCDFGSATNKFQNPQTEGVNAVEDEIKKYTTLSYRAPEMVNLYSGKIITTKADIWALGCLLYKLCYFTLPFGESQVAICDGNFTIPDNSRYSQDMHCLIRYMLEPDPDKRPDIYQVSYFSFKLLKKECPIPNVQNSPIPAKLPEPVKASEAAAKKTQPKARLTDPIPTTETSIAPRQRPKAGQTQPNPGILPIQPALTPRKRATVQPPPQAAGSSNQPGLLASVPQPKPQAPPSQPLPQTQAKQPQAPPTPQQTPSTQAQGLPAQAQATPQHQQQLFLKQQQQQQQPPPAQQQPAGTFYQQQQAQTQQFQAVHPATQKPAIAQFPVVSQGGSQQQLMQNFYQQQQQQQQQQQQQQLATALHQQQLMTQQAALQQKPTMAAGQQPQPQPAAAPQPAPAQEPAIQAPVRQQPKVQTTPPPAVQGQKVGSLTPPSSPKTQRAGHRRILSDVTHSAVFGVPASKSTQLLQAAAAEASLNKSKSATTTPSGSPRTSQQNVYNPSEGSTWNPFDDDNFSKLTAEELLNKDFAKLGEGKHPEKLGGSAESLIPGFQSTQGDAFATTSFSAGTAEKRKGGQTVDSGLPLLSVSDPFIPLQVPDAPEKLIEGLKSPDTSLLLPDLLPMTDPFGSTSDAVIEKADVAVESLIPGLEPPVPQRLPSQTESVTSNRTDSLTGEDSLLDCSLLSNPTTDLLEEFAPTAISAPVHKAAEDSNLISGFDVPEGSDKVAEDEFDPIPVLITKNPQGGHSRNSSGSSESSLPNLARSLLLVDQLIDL

[17] = biological target: T1, Serine/threonine-protein kinase Chk1 (Homo sapiens) (UniProt O14757)
T1 sequence (whole entry): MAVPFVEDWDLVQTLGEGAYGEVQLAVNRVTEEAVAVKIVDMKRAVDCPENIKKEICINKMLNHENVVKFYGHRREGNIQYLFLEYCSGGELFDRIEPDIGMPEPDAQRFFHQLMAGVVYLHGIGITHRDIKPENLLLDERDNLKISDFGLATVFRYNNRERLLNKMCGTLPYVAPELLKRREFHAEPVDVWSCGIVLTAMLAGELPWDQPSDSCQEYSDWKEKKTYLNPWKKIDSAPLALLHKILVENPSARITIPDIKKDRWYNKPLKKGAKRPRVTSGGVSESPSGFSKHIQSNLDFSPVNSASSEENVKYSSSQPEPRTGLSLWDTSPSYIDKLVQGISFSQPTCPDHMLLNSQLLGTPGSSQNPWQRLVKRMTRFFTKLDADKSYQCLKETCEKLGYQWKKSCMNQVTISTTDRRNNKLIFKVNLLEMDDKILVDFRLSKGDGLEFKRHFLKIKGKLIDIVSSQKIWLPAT

[18] = biological target: RAC-gamma serine/threonine-protein kinase (Homo sapiens) (UniProt Q9Y243); settings: Compound concentration 1.0 uM
[19] = biological target: Serine/threonine-protein kinase N2 (Homo sapiens) (UniProt Q16513); experiment: PRK2 DUNDEE kinase screen (BI); settings: Compound concentration 10.0 uM
[20] = biological target: Sodium-dependent serotonin transporter (Homo sapiens) (UniProt P31645); settings: Compound concentration 10.0 uM
[21] = biological target: Mu-type opioid receptor (Homo sapiens) (UniProt P35372); settings: Compound concentration 10.0 uM
[22] = biological target: Histamine H4 receptor (Homo sapiens) (UniProt Q9H3N8); settings: Compound concentration 10.0 uM
Sequence of Histamine H4 receptor (Homo sapiens) (Q9H3N8 whole entry): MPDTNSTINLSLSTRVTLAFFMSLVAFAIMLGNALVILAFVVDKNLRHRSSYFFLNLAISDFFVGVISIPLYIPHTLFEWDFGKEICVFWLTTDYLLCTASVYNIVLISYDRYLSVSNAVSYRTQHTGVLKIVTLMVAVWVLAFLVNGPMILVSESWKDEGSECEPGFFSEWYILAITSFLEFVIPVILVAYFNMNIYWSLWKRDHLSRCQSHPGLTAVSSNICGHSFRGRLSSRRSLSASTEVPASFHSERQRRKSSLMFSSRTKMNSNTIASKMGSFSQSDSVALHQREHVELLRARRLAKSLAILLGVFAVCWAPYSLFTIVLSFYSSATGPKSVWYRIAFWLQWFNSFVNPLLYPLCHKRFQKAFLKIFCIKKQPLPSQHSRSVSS

[23] = biological target: cGMP-dependent protein kinase 2 (Homo sapiens) (UniProt Q13237); settings: Compound concentration 1.0 uM
[24] = biological target: MAP kinase-interacting serine/threonine-protein kinase 1 (Homo sapiens) (UniProt Q9BUB5); experiment: MKNK1 Invitrogen Lab (UK) kinase screen (BI); settings: Compound concentration 1.0 uM
[25] = biological target: Mitogen-activated protein kinase 15 (Homo sapiens) (UniProt Q8TD08); experiment: ERK8 DUNDEE kinase screen (BI); settings: Compound concentration 10.0 uM
[26] = biological target: Calcium/calmodulin-dependent protein kinase type IV (Homo sapiens) (UniProt Q16566); experiment: CAMK4 Invitrogen Lab (UK) kinase screen (BI); settings: Compound concentration 1.0 uM
[27] = biological target: Activated CDC42 kinase 1 (Homo sapiens) (UniProt Q07912); settings: Compound concentration 1.0 uM
[28] = biological target: Histamine H1 receptor (Homo sapiens) (UniProt P35367); settings: Compound concentration 10.0 uM
Sequence of Histamine H1 receptor (Homo sapiens) (P35367 whole entry): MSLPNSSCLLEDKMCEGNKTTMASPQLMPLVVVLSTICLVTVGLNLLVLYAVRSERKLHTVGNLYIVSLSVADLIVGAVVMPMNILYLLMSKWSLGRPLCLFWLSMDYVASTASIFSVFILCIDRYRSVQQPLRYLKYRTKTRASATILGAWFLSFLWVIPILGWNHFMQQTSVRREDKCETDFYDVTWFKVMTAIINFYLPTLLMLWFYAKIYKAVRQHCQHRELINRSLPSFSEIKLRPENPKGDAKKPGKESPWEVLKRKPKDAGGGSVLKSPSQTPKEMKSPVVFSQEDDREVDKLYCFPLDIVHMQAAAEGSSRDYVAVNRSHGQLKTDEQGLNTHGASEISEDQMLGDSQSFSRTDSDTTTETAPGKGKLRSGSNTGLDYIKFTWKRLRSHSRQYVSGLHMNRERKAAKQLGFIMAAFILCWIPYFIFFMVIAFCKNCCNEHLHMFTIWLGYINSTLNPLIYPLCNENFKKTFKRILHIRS

[29] = biological target: Cyclin-dependent kinase 14 (Homo sapiens) (UniProt O94921); experiment: CDK14 (PFTK1)/CYC Invitrogen Lab (UK) kinase screen (BI); settings: Compound concentration 1.0 uM
[30] = biological target: Endothelin-converting enzyme 1 (Homo sapiens) (UniProt P42892); settings: Compound concentration 10.0 uM
[31] = biological target: STE20/SPS1-related proline-alanine-rich protein kinase (Homo sapiens) (UniProt Q9UEW8); experiment: STK39 (STLK3) Invitrogen Lab (UK) kinase screen (BI); settings: Compound concentration 1.0 uM
[32] = biological target: Serine/threonine-protein kinase Nek7 (Homo sapiens) (UniProt Q8TDX7); experiment: NEK7 DUNDEE kinase screen (BI); settings: Compound concentration 10.0 uM
[33] = biological target: 5-hydroxytryptamine receptor 1B (Homo sapiens) (UniProt P28222); settings: Compound concentration 10.0 uM
[34] = biological target: Serine/threonine-protein kinase PAK 1 (Homo sapiens) (UniProt Q13153); settings: Compound concentration 1.0 uM
[35] = biological target: ALK tyrosine kinase receptor (Homo sapiens) (UniProt Q9UM73); experiment: ALK Invitrogen Lab (UK) kinase screen (BI)
Sequence of ALK tyrosine kinase receptor (Homo sapiens) (Q9UM73 19-1620 limits assumed): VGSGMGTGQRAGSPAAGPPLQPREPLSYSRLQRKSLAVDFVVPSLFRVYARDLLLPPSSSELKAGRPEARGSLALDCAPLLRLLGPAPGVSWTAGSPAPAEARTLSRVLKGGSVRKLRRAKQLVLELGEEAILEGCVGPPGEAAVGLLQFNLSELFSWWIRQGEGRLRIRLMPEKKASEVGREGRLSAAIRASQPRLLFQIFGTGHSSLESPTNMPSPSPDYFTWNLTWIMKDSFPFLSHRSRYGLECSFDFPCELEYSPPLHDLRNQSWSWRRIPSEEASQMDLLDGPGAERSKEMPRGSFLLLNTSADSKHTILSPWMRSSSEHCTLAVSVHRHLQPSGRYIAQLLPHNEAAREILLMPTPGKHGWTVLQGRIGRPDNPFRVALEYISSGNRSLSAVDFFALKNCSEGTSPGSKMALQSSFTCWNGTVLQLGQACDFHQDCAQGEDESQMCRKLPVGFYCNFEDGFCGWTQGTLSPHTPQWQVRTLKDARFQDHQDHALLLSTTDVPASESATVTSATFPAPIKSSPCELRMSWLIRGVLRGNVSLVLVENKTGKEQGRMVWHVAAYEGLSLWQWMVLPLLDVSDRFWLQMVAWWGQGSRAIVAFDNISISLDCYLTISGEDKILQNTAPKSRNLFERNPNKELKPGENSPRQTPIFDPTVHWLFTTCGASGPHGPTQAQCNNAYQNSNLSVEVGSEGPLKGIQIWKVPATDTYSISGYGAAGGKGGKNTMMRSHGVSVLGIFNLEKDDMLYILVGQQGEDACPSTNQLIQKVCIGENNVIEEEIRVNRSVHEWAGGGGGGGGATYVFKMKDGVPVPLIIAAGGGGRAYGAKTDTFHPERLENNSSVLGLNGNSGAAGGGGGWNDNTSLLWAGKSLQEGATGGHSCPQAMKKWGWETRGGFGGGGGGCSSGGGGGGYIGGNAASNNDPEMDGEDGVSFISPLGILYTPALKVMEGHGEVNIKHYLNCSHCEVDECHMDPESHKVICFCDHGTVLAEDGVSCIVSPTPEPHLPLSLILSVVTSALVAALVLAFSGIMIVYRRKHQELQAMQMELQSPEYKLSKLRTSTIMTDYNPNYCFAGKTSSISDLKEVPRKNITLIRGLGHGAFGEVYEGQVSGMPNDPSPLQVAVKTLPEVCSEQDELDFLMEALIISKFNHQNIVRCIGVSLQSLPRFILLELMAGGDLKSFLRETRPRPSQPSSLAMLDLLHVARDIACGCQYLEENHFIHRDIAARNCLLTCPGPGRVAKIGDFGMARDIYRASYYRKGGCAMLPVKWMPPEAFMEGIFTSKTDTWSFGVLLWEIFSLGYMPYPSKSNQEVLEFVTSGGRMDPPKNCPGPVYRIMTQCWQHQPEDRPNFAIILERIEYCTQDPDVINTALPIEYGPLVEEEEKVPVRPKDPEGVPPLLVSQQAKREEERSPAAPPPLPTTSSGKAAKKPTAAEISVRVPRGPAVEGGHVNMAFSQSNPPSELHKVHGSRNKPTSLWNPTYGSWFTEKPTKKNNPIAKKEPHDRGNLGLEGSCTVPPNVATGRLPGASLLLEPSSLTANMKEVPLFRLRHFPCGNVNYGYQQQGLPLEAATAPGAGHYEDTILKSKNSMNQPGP

[36] = biological target: Acetylcholinesterase (Homo sapiens) (UniProt P22303); settings: Compound concentration 10.0 uM
[37] = biological target: Polyunsaturated fatty acid 5-lipoxygenase (Homo sapiens) (UniProt P09917); experiment: 5LO Eurofins SafetyScreen44 (BI); settings: Compound concentration 10.0 uM

CCC(F)(F)c1cc(N2CCC(S(C)(=O)=O)CC2)nc2sc(C(N)=O)c(N)c12 [BI-605906]
residual activity [1]: 88%
residual activity [2]: 96%
residual activity ([3]; Compound concentration 1.0 uM): 95%
residual activity ([3]; Compound concentration 10.0 uM): 77%
residual activity [4]: 61.1%
residual activity [5]: 89%
residual activity [6]: 102%
residual activity [7]: 95%
residual activity [8]: 97%
residual activity [9]: 62%
residual activity [10]: 91%
residual activity ([11]; Compound concentration 1.0 uM): 79%
residual activity ([11]; Compound concentration 10.0 uM): 92%
residual activity [12]: 97%
residual activity [13]: 108%
inhibition [14]: 34.5%
residual activity [15]: 87%
IC50 [16]: 7 µM (not active)
residual activity ([17]; Compound concentration 1.0 uM): 95%
residual activity ([17]; Compound concentration 10.0 uM): 89%
residual activity [18]: 91%
residual activity [19]: 46.4%
inhibition [20]: 8.94%
inhibition [21]: 5.18%
inhibition [22]: -1.66%
residual activity [23]: 108%
residual activity [24]: 107%
residual activity [25]: 63.2%
residual activity [26]: 103%
residual activity [27]: 97%
inhibition [28]: 9.22%
residual activity [29]: 70%
residual activity [30]: 82%
residual activity [31]: 88%
residual activity [32]: 104%
inhibition [33]: 3.43%
residual activity [34]: 98%
residual activity ([35]; Compound concentration 1.0 uM): 80%
residual activity ([35]; Compound concentration 10.0 uM): 74%
residual activity [36]: 87%
residual activity [37]: 53%
